Measurements taken from paper PMC6333775, “Structure of tRNA splicing enzyme Tpt1 illuminates the mechanism of RNA 2′-PO4 recognition and ADP-ribosylation” (Nature Communications, 2019).
Each block holds one compound with its values, some of them ahead of it.

How the values were obtained:
[1] = biological target: T1, RslTpt1 (Runella slithyformis, UniProt A0A7U3ZK32, H99A/T101A); assay: RNA […]'-phosphotransferase assay, […]-labelled 6-mer RNA, urea-PAGE; type: biochemical; conditions: 1 mM NAD+, 0.2 µM 2'-PO4 6-mer RNA, 0.01 µM enzyme, 30 min, pH 7.5, 37 °C
T1 construct: gene kptA; His6-tagged, recombinant from E. coli, Ni-NTA and gel filtration

[2] = biological target: T2, CthTpt1 (Acetivibrio thermocellus, UniProt A3DJX6, C46S); assay: X-ray crystal structure, […] Å; type: binding; conditions: NAD+ site; CoA absent from RNA lobe; acquired during production in E. coli; pH 8.5
T2 construct: gene kptA; 182-aa polypeptide, His6-tagged, recombinant from E. coli; Leu3-Glu182 modelled; one protomer in the asymmetric unit

[3] = biological target: T3, CthTpt1 (Acetivibrio thermocellus, UniProt A3DJX6); assay: X-ray crystal structure, […] Å; type: binding; conditions: acquired during production in E. coli, pH 6.0
T3 construct: gene kptA; 182-aa polypeptide, His6-tagged, recombinant from E. coli; Leu3-Glu182 modelled; one protomer in the asymmetric unit
T3 sequence (A3DJX6 whole entry): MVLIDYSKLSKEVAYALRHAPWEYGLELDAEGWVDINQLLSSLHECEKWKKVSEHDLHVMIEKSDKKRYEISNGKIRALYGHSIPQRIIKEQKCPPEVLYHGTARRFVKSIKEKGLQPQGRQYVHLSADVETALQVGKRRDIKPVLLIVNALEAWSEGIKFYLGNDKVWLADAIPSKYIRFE

T1 sequence (A0A7U3ZK32 entry or part of it H99A/T101A): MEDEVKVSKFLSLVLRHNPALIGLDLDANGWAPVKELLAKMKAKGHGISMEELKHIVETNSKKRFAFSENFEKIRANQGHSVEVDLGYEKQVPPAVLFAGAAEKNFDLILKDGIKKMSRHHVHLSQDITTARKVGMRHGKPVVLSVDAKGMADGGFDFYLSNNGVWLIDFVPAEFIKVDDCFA
T2 sequence (A3DJX6 whole entry C46S): as the sequence (A3DJX6 whole entry) above, with C46S counted along it

- % of input RNA converted to 2′-OH product [1]: 4%
SMILES: NC(=O)c1ccc[n+]([C@@H]2O[C@H](COP(=O)([O-])OP(=O)(O)OC[C@H]3O[C@@H](n4cnc5c(N)ncnc54)[C@H](O)[C@@H]3O)[C@@H](O)[C@H]2O)c1 [NAD^+]

SMILES: Nc1ncnc2c1ncn2[C@@H]1O[C@H](COP(=O)(O)OP(=O)(O)OC[C@H]2O[C@H](OP(=O)(O)O)[C@H](O)[C@@H]2O)[C@@H](O)[C@H]1O [ADP-ribose-1″-phosphate]
- X-ray crystal structure, 1.55 Å [2]: ADP-ribose-1″-phosphate was bound to the NAD^+ lobe
- X-ray crystal structure, 1.4 Å ([3]; NAD+ site (C-terminal lobe), CoA also bound): The molecule associated with the C-terminal lobe was unambiguously modeled as ADP-ribose-1″-phosphate

SMILES: CC(C)(COP(=O)(O)OP(=O)(O)OC[C@H]1O[C@@H](n2cnc3c(N)ncnc32)[C@H](O)[C@@H]1OP(=O)(O)O)[C@@H](O)C(=O)NCCC(=O)NCCS [coenzyme A]
- X-ray crystal structure, 1.4 Å ([3]; covalent (disulfide to Cys46), pAp moiety in RNA site (N-terminal lobe), ADP-ribose-1″-phosphate also bound): The molecule associated with the N-terminal lobe was convincingly modeled as coenzyme A (CoA)
